Reference: BindingDB's records for doi:10.1016/j.bmc.2019.01.012 (University of Education, 2019)
pIC50: −log10 of the molar value.

Columns and labels:
Cholinesterase = Cholinesterase (Homo sapiens, UniProt P06276); assay: Inhibition of BuChE (unknown origin) using butyrylthiocholine bromide as substrate by Ellman method
Acetylcholinesterase = Acetylcholinesterase (Homo sapiens, UniProt P22303); assay: Inhibition of AChE (unknown origin) using […] as substrate by Ellman method
Acetylcholinesterase, sequence (P22303 whole entry): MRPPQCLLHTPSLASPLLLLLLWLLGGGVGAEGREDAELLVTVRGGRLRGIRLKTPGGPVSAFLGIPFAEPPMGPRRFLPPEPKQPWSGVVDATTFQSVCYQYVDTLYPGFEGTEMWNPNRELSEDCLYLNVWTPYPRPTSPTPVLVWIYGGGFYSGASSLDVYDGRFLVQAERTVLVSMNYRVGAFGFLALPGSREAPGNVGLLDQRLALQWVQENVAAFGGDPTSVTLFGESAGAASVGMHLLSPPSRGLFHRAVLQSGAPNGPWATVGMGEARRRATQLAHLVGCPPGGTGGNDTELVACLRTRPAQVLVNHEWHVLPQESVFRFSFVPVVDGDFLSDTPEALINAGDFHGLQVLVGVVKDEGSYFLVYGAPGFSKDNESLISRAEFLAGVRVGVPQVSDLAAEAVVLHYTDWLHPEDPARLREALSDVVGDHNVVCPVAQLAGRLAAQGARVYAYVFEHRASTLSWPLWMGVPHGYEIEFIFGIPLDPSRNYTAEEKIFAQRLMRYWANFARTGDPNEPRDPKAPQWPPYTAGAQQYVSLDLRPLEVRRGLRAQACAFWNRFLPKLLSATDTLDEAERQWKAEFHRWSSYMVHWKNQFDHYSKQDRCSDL

Cholinesterase, sequence (P06276 whole entry): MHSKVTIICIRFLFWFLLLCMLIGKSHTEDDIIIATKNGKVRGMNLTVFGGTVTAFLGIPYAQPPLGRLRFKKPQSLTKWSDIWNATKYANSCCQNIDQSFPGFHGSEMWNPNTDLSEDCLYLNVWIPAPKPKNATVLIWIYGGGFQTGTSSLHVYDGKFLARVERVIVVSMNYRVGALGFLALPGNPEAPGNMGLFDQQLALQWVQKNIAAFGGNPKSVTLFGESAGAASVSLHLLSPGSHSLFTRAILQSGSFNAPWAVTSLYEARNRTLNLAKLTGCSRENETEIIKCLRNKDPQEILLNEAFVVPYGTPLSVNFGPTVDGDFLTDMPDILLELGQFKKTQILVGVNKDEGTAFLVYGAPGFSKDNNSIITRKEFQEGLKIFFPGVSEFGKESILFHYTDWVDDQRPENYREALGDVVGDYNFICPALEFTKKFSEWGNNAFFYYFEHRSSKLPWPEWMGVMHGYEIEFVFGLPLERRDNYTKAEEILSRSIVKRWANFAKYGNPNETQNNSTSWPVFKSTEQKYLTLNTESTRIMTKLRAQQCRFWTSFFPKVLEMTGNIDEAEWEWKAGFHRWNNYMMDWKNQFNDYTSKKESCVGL

| SMILES | pIC50 (Cholinesterase) | pIC50 (Acetylcholinesterase) |
| --- | --- | --- |
| CC(C)Cc1ccc(C(C)C(=O)NS(=O)(=O)c2ccc(N)cc2)cc1 (stereo not given) | 3.67 | > 3.22 |
| Nc1ccc(S(N)(=O)=O)cc1 [aromatic sulfonamide compound 5] | 3.86 | – |
| CC(C)Cc1ccc([C@H](C)C(=O)O)cc1 [(RS)-ibuprofen] | > 3.22 | 3.63 |
